# Test results as given in PubChem BioAssay AID248 (DTP/NCI, 2004).
# Several values for one entry are separate records, joined by “and”; a condition that tells them apart may be missing. Equal entries are not always repeated. Toxic doses and inconclusive results are not listed.
# Tested on: L1210 leukemia ip in BDF1 mice, survival T/C
# Experiment: NCI In Vivo Anticancer Drug Screen. Data for tumor model L1210 Leukemia (intraperitoneal) in B6D2F1 (BDF1) mice
# Conditions: endpoint: mean survival time, higher = longer survival
# Outline: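 Survival endpoint. Drug-treated group vs vehicle group, expressed as T divided by C. Tumor passaged by transplantation.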
# [1] = dose: 100.0 mg/kg/injection, schedule: Q01DX001 (ip), vehicle: saline
# [2] = dose: 100.0 mg/kg/injection, schedule: Q01DX009 (ip), vehicle: saline
# [3] = dose: 200.0 mg/kg/injection, schedule: Q01DX001 (ip), vehicle: saline
# [4] = dose: 200.0 mg/kg/injection, schedule: Q01DX009 (ip), vehicle: saline
# [5] = dose: 400.0 mg/kg/injection, schedule: Q01DX001 (ip), vehicle: saline
# [6] = dose: 400.0 mg/kg/injection, schedule: Q01DX009 (ip), vehicle: saline
# [7] = dose: 100.0 mg/kg/injection, schedule: Q01DX009 (ip), vehicle: saline with Tween-80
# [8] = dose: 200.0 mg/kg/injection, schedule: Q01DX009 (ip), vehicle: saline with Tween-80
# [9] = dose: 400.0 mg/kg/injection, schedule: Q01DX009 (ip), vehicle: saline with Tween-80
# [10] = dose: 100.0 mg/kg/injection, schedule: Q04DX003 (ip), vehicle: saline with Tween-80
# [11] = dose: 200.0 mg/kg/injection, schedule: Q04DX003 (ip), vehicle: saline with Tween-80
# [12] = dose: 100.0 mg/kg/injection, schedule: Q01DX009 (ip), vehicle: Klucel (hydroxypropylcellulose) (HPC)
# [13] = dose: 200.0 mg/kg/injection, schedule: Q01DX009 (ip), vehicle: Klucel (hydroxypropylcellulose) (HPC)
# [14] = dose: 400.0 mg/kg/injection, schedule: Q01DX009 (ip), vehicle: Klucel (hydroxypropylcellulose) (HPC)
# [15] = dose: 100.0 mg/kg/injection, schedule: Q04DX003 (ip), vehicle: Klucel (hydroxypropylcellulose) (HPC)
# [16] = dose: 200.0 mg/kg/injection, schedule: Q04DX003 (ip), vehicle: Klucel (hydroxypropylcellulose) (HPC)
# [17] = dose: 400.0 mg/kg/injection, schedule: Q04DX003 (ip), vehicle: Klucel (hydroxypropylcellulose) (HPC)
# [18] = dose: 12.5 mg/kg/injection, schedule: Q01DX009 (ip), vehicle: saline
# [19] = dose: 12.5 mg/kg/injection, schedule: Q04DX003 (ip), vehicle: saline
# [20] = dose: 25.0 mg/kg/injection, schedule: Q01DX009 (ip), vehicle: saline
# [21] = dose: 25.0 mg/kg/injection, schedule: Q04DX003 (ip), vehicle: saline
# [22] = dose: 50.0 mg/kg/injection, schedule: Q04DX003 (ip), vehicle: saline
# [23] = dose: 100.0 mg/kg/injection, schedule: Q04DX003 (ip), vehicle: saline
# [24] = dose: 200.0 mg/kg/injection, schedule: Q04DX003 (ip), vehicle: saline
# [25] = dose: 400.0 mg/kg/injection, schedule: Q04DX003 (ip), vehicle: saline with Tween-80
# [26] = dose: 100.0 mg/kg/injection, schedule: Q01DX001 (ip), vehicle: Klucel (hydroxypropylcellulose) (HPC)
# [27] = dose: 200.0 mg/kg/injection, schedule: Q01DX001 (ip), vehicle: Klucel (hydroxypropylcellulose) (HPC)
# [28] = dose: 50.0 mg/kg/injection, schedule: Q01DX009 (ip), vehicle: saline
# [29] = dose: 50.0 mg/kg/injection, schedule: Q01DX001 (ip), vehicle: Klucel (hydroxypropylcellulose) (HPC)
smiles,measurement,setting,value
CN=C(N)c1ccc(NC(=O)/C=C\c2ccc(/C=C/C(=O)Nc3ccc(C(N)=NC)cc3)cc2)cc1,T/C,"dose: 15.0 mg/kg/injection, schedule: Q01DX Z (ip), vehicle: saline",121 % of control
same,T/C,"dose: 60.0 mg/kg/injection, schedule: Q01DX Z (oral), vehicle: saline",100 % of control
same,T/C,"dose: 120.0 mg/kg/injection, schedule: Q01DX Z (ip), vehicle: saline",179 % of control
same,T/C,"dose: 120.0 mg/kg/injection, schedule: Q01DX Z (oral), vehicle: saline",100 % of control
same,T/C,"dose: 240.0 mg/kg/injection, schedule: Q01DX Z (oral), vehicle: saline",101 % of control
same,T/C,"dose: 480.0 mg/kg/injection, schedule: Q01DX Z (oral), vehicle: saline",95 % of control
Clc1c(Cl)c(/C=N/Nc2ccccc2)c(Cl)c(Cl)c1/C=N\Nc1ccccc1,T/C,"dose: 50.0 mg/kg/injection, schedule: Q01DX001 (ip), vehicle: saline",101 % of control
same,T/C,[1],95 % of control
same,T/C,[2],98 % of control
same,T/C,[3],92 % of control
same,T/C,[4],96 % of control
same,T/C,[5],95 % of control
same,T/C,[6],96 % of control
COc1ccc(OCC(C)=O)cc1,T/C,[7],97 % of control
same,T/C,[8],100 % of control
same,T/C,[9],100 % of control
O=C(Nc1cccc([N+](=O)[O-])c1)N1CCCC1,T/C,"dose: 100.0 mg/kg/injection, schedule: Q01DX001 (ip), vehicle: carboxymethylcellulose (CMC)",98 % of control
same,T/C,"dose: 200.0 mg/kg/injection, schedule: Q01DX001 (ip), vehicle: carboxymethylcellulose (CMC)",102 % of control
same,T/C,"dose: 400.0 mg/kg/injection, schedule: Q01DX001 (ip), vehicle: carboxymethylcellulose (CMC)",100 % of control
O=[N+]([O-])c1cnccc1Nc1ccncc1,T/C,[10],98 % of control
same,T/C,[11],94 % of control
CSc1ccc(OC(=O)Nc2ccc(Cl)cc2Cl)cc1C,T/C,[12],95 % of control
same,T/C,[13],98 % of control
same,T/C,[14],95 % of control
CSc1ccc(OC(=O)Nc2ccccc2C)cc1C,T/C,"dose: 100.0 mg/kg/injection, schedule: Q04DX002 (ip), vehicle: saline with Tween-80",100 % of control
same,T/C,"dose: 200.0 mg/kg/injection, schedule: Q04DX002 (ip), vehicle: saline with Tween-80",100 % of control
same,T/C,"dose: 400.0 mg/kg/injection, schedule: Q04DX002 (ip), vehicle: saline with Tween-80",118 % of control
CCCCCCCCOC(=O)c1ccccc1C(=O)OCCCCCCCC,T/C,[12],96 % of control
same,T/C,[15],97 % of control
same,T/C,[13],94 % of control
same,T/C,[16],93 % of control
same,T/C,[14],96 % of control
same,T/C,[17],92 % of control
CC(CCCN(CCCl)CCCl)Nc1ccnc2cc(Cl)ccc12 (stereo unspecified),T/C,"dose: 5.0 mg/kg/injection, schedule: Q01DX001 (ip), vehicle: saline",119 % of control
same,T/C,"dose: 10.0 mg/kg/injection, schedule: Q01DX001 (ip), vehicle: saline",105 % of control
NCCc1ccc(OCc2ccccc2)c(OCc2ccccc2)c1,T/C,[18],108 % of control
same,T/C,[19],98 % of control
same,T/C,[20],97 % of control
same,T/C,[21],102 % of control
same,T/C,[22],98 % of control
CCCSC1=C(N2CC2)C(=O)C(SCCC)=C(N2CC2)C1=O,T/C,"dose: 6.25 mg/kg/injection, schedule: Q04DX003 (ip), vehicle: saline",98 % of control
same,T/C,[19],104 % of control
same,T/C,[21],97 % of control
same,T/C,[22],103 % of control
same,T/C,[23],108 % of control
same,T/C,[24],116 % of control
O=C1OC2(c3ccccc31)c1ccccc1-c1ccccc12,T/C,[10],97 % of control
same,T/C,[11],89 % of control
CCOC(=O)Nc1cc(Cl)cc(NC(=O)OCC)n1,T/C,"dose: 100.0 mg/kg/injection, schedule: Q01DX001 (ip), vehicle: other",94 % of control
same,T/C,[7],96 % of control
same,T/C,[10],107 % of control
same,T/C,"dose: 200.0 mg/kg/injection, schedule: Q01DX001 (ip), vehicle: other",102 % of control
same,T/C,[8],106 % of control
same,T/C,[11],100 % of control
same,T/C,"dose: 400.0 mg/kg/injection, schedule: Q01DX001 (ip), vehicle: other",96 % of control
same,T/C,[9],96 % of control
same,T/C,[25],108 % of control
O=C1CC2C(=O)CC1C(C(=O)O)C2C(=O)O (stereo unspecified),T/C,"dose: 75.0 mg/kg/injection, schedule: Q01DX001 (ip), vehicle: saline",102 % of control
same,T/C,[26],103 % of control
same,T/C,"dose: 150.0 mg/kg/injection, schedule: Q01DX001 (ip), vehicle: saline",104 % of control
same,T/C,[27],119 % of control
same,T/C,"dose: 300.0 mg/kg/injection, schedule: Q01DX001 (ip), vehicle: saline",105 % of control
same,T/C,"dose: 400.0 mg/kg/injection, schedule: Q01DX001 (ip), vehicle: Klucel (hydroxypropylcellulose) (HPC)",98 % of control
CCOC(=O)C1=C(C)NC(C)=C(C(=O)OCC)C1,T/C,[28],101 % of control
same,T/C,[2],96 % of control
same,T/C,[23],104 % of control
same,T/C,[4],96 % of control
same,T/C,[24],108 % of control
same,T/C,[6],101 % of control
same,T/C,"dose: 400.0 mg/kg/injection, schedule: Q04DX003 (ip), vehicle: saline",95 % of control
COc1ccc([N+](=O)[O-])cc1NC(=O)Nc1cccc(C(F)(F)F)c1,T/C,"dose: 100.0 mg/kg/injection, schedule: Q04DX002 (ip), vehicle: Klucel (hydroxypropylcellulose) (HPC)",96 % of control
same,T/C,"dose: 200.0 mg/kg/injection, schedule: Q04DX002 (ip), vehicle: Klucel (hydroxypropylcellulose) (HPC)",101 % of control
same,T/C,"dose: 400.0 mg/kg/injection, schedule: Q04DX002 (ip), vehicle: Klucel (hydroxypropylcellulose) (HPC)",96 % of control
CCN(CC)CCOc1ccc(OC)cc1,T/C,[21],91 % of control
same,T/C,[28],102 % of control
same,T/C,[22],115 % of control
same,T/C,[2],111 % of control
same,T/C,[23],104 % of control and 121 % of control
CC(C)=NNC(N)=O,T/C,[18],97 % of control
same,T/C,[20],100 % of control
same,T/C,"dose: 25.0 mg/kg/injection, schedule: Q04DX002 (ip), vehicle: saline",98 % of control
same,T/C,[28],94 % of control
same,T/C,"dose: 50.0 mg/kg/injection, schedule: Q04DX002 (ip), vehicle: saline",103 % of control
NCC(=O)c1ccc(OC(=O)c2ccccc2)cc1,T/C,[7],92 % of control
same,T/C,[10],95 % of control
same,T/C,[8],94 % of control
same,T/C,[11],95 % of control
same,T/C,[9],103 % of control
same,T/C,[25],96 % of control
NC(N)=Nc1nc2ccccc2s1,T/C,[18],94 % of control
same,T/C,[20],100 % of control
same,T/C,"dose: 25.0 mg/kg/injection, schedule: Q04DX003 (ip), vehicle: Klucel (hydroxypropylcellulose) (HPC)",103 % of control
same,T/C,[28],96 % of control
same,T/C,"dose: 50.0 mg/kg/injection, schedule: Q04DX003 (ip), vehicle: Klucel (hydroxypropylcellulose) (HPC)",100 % of control
O=C(O)CCc1ccsc1,T/C,[1],94 % of control
same,T/C,[3],100 % of control
same,T/C,[5],102 % of control
NC(=O)NN=C(CCl)CCl,T/C,"dose: 100.0 mg/kg/injection, schedule: Q04DX002 (ip), vehicle: saline",100 % of control
same,T/C,"dose: 200.0 mg/kg/injection, schedule: Q04DX002 (ip), vehicle: saline",91 % of control
CSCC(NC(C)=O)C(=O)O (stereo unspecified),T/C,[29],100 % of control
same,T/C,[26],98 % of control
same,T/C,[27],91 % of control
Cc1ccc(-n2c(O)c(N=Nc3ccc(Br)cc3)c(=O)n(-c3ccccc3)c2=S)cc1,T/C,[29],97 % of control
same,T/C,[26],111 % of control
same,T/C,[27],94 % of control
CC(C)(NCCNC(C)(C)[P+](=O)O)[P+](=O)O,T/C,[15],96 % of control
same,T/C,[16],93 % of control
same,T/C,[17],93 % of control
c1ccc(Sc2ccc3ccccc3c2)cc1,T/C,[7],103 % of control
same,T/C,[8],97 % of control
same,T/C,[9],93 % of control
